Data taken from patent US8076486B2, “Heteroaryl-substituted arylaminopyridine derivatives as MEK inhibitors” (Merck Serono S.A., priority 2006, dated 2011).

Experiments:
Murine colon C26 cells = assay: Tumor Cell Proliferation Assay (ATP Lite), C26; assay type: cell-based; settings: Mus musculus, 96 h, 4 days, ATPlite
Procedure: (§1) Assay 2: Tumor Cell Proliferation Assays (ATP Lite)
(§2) Murine colon C26 (1500 cells/well), human melanoma A375 (2000 cells/well), or human pancreatic MiaPaCa-2 cells (2000 cells/well) were plated in white, 96 well plates (Corning) in growth media (DMEM with 10% fetal bovine serum, 2 mM glutamine for C26 and MiaPaCa-2, and RPMI with 10% fetal bovine serum, 2 mM glutamine for A375) and cultured overnight at 37° C. in a humidified, 5% CO2 incubator. Inhibitors were serially diluted in 100% DMSO and subsequently added to the cells, in growth media, to reach a final concentration of 0.25% DMSO. The cells were incubated for 4 days in the presence of the test compounds and the proliferation was quantitated using the ATPlite cell proliferation kit (Packard).

[1] = tested on: human pancreatic MiaPaCa-2 cells; assay: Tumor Cell Proliferation Assay (ATP Lite), MiaPaCa-2; assay type: cell-based; settings: MIA PaCa-2, 96 h, 4 days, ATPlite, read-out: MiaPaCa2 cell proliferation IC50
Procedure: as §1, §2

human MEK1 = human MEK1 (Homo sapiens, UniProt Q02750, S218E/S222E); assay: MEK-1 Enzyme Assay (LANCE-HTRF); assay type: biochemical; settings: MEK-1 EE, ERK-2K52A substrate, 9 uM ATP, 1.5 hrs
Chain of human MEK1 (Q02750 whole entry S218E/S222E): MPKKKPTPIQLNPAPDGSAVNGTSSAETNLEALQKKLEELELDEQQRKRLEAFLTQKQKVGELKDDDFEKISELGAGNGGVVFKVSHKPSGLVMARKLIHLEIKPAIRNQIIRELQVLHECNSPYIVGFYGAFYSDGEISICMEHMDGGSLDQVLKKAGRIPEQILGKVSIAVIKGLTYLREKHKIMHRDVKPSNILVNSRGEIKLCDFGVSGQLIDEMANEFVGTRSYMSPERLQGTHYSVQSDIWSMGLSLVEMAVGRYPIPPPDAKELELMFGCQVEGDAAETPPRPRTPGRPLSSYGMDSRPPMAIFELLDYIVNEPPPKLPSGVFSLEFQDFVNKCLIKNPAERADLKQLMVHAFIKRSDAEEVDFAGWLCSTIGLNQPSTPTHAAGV
Procedure: Assay 1: MEK-1 Enzyme Assay (LANCE-HTRF)
Inhibition of human MEK1 kinase activity was monitored with a homogenous, fluorescence-based assay. The assay uses time resolved fluorescence resonance energy transfer to probe for phosphorylation of ERK1 by MEK1. The detailed procedure is described in the following:
Constititutively active MEK-1 EE (150 ng/well) and ERK-2K52A (110 ng/well) were incubated in black, 384 well Optiplates (Perkin Elmer) for 1.5 hrs at room temperature, in the presence of increasing concentrations of inhibitors. The total reaction volume was 50 ul. The inhibitors were serial diluted in kinase buffer (9 uM ATP, 50 mM Tris-Hcl pH 8.0, 10 mM MgCl2, 1 mM DTT and 100 uM Na3VO4), to a final concentration of 1% DMSO. At the end of the incubation, the enzyme reaction was quenched by adding 50 ul of assay buffer containing 50 mM Tris-Hcl, 50 mM EDTA, 0.1% BSA and a mixture of 1.25 ug/mL europium labeled anti-phosphotyrosine mAb (Perkin Elmer) and 5 ug/mL of allophycocyanin labeled anti-GST antibody (CIS-US). Plates were agitated on a plate shaker for 30 minutes and the phosphorylation of the ERK-2K52A substrate was measured by homogeneous time resolved fluorescence (HTRF) at 340 nm excitation and […] emission filters on the VICTOR V fluorescence plate reader. Phosphorylation is expressed as a ratio of 665 nM signal×10,000/615 nM signal. To assess the inhibitory potential of the compounds, IC50-values were determined.

[2] = tested on: human melanoma A375 cells; assay: Tumor Cell Proliferation Assay (ATP Lite), A375; assay type: cell-based; settings: A-375, 96 h, 4 days, ATPlite
Procedure: as §1, §2

SMILES	IC50 (Murine colon C26 cells) [nM]	IC50 [1] [nM]	IC50 (human MEK1) [nM]	IC50 [2] [nM]
CCOC(=O)c1nnc(-c2ccncc2Nc2ccc(I)cc2F)[nH]1 [Example 31, 5-[3-(2-Fluoro-4-iodo-phenylamino)-pyridin-4-yl]-4H-[1,2,4]triazole-3-carboxylic acid ethyl ester]	3000 to 25000	3000 to 25000	≤ 3000	≤ 3000
CCOC(=O)c1nnc(-c2ccncc2Nc2ccc(I)cc2F)o1 [Example 39, 5-[3-(2-Fluoro-4-iodo-phenylamino)-pyridin-4-yl]-[1,3,4]oxadiazole-2-carboxylic acid ethyl ester]	> 25000	> 25000	≤ 3000	≤ 3000
Fc1cc(I)ccc1Nc1cnccc1-c1nnco1 [Example 40, (2-Fluoro-4-iodo-phenyl)-(4-[1,3,4]oxadiazol-2-yl-pyridin-3-yl)-amine]	≤ 3000	≤ 3000	≤ 3000	≤ 3000
Nc1nnc(-c2ccncc2Nc2ccc(I)cc2F)[nH]1 [Example 41, [4-(5-Amino-4H-[1,2,4]triazol-3-yl)-pyridin-3-yl]-(2-fluoro-4-iodo-phenyl)-amine]	≤ 3000	≤ 3000	≤ 3000	≤ 3000
CN(C)c1nnc(-c2ccncc2Nc2ccc(I)cc2F)o1 [Example 42, [4-(5-Dimethylamino-[1,3,4]oxadiazol-2-yl)-pyridin-3-yl]-(2-fluoro-4-iodo-phenyl)-amine]	≤ 3000	≤ 3000	≤ 3000	≤ 3000
COC(=O)CNc1nnc(-c2ccncc2Nc2ccc(I)cc2F)o1 [Example 43, {5-[3-(2-Fluoro-4-iodo-phenylamino)-pyridin-4-yl]-[1,3,4]oxadiazol-2-ylamino}-acetic acid methyl ester]	≤ 3000	3000 to 25000	≤ 3000	≤ 3000
OCCNc1nnc(-c2ccncc2Nc2ccc(I)cc2F)o1 [Example 44, 2-{5-[3-(2-Fluoro-4-iodo-phenylamino)-pyridin-4-yl]-[1,3,4]oxadiazol-2-ylamino}-ethanol]	≤ 3000	≤ 3000	≤ 3000	≤ 3000
O=C(O)CNc1nnc(-c2ccncc2Nc2ccc(I)cc2F)o1 [Example 45, {5-[3-(2-Fluoro-4-iodo-phenylamino)-pyridin-4-yl]-[1,3,4]oxadiazol-2-ylamino}-acetic acid]	3000 to 25000	3000 to 25000	≤ 3000	≤ 3000
NC(=O)CNc1nnc(-c2ccncc2Nc2ccc(I)cc2F)o1 [Example 46, 2-{5-[3-(2-Fluoro-4-iodo-phenylamino)-pyridin-4-yl]-[1,3,4]oxadiazol-2-ylamino}-acetamide]	≤ 3000	≤ 3000	≤ 3000	≤ 3000
CN(C)C(=O)CNc1nnc(-c2ccncc2Nc2ccc(I)cc2F)o1 [Example 47, 2-{5-[3-(2-Fluoro-4-iodo-phenylamino)-pyridin-4-yl]-[1,3,4]oxadiazol-2-ylamino}-N,N-dimethyl-acetamide]	≤ 3000	≤ 3000	≤ 3000	≤ 3000
Nc1nnc(-c2c(F)cncc2Nc2ccc(I)cc2F)o1 [Example 48, [4-(5-Amino-[1,3,4]oxadiazol-2-yl)-5-fluoro-pyridin-3-yl]-(2-fluoro-4-iodo-phenyl)-amine]	≤ 3000	≤ 3000	≤ 3000	≤ 3000
Fc1cc(I)ccc1Nc1cnccc1-c1nnc(NCC2CCCO2)o1 (centres unmarked) [Example 49, (2-Fluoro-4-iodo-phenyl)-(4-{5-[(tetrahydro-furan-2-ylmethyl)-amino]-[1,3,4]oxadiazol-2-yl}-pyridin-3-yl)-amine]	≤ 3000	≤ 3000	≤ 3000	≤ 3000
Fc1cc(I)ccc1Nc1cnccc1-c1nnc(NCC2CCCO2)s1 (centres unmarked) [Example 50, (2-Fluoro-4-iodo-phenyl)-(4-{5-[(tetrahydro-furan-2-ylmethyl)-amino]-[1,3,4]thiadiazol-2-yl}-pyridin-3-yl)-amine]	≤ 3000	≤ 3000	≤ 3000	≤ 3000

The remaining lines, values ahead:

IC50 (Murine colon C26 cells) [nM]	IC50 [1] [nM]	IC50 (human MEK1) [nM]	IC50 [2] [nM]	SMILES
≤ 3000	≤ 3000	≤ 3000	≤ 3000	CN(C)CCNc1nnc(-c2ccncc2Nc2ccc(I)cc2F)o1 [Example 22, N-{5-[3-(2-Fluoro-4-iodo-phenylamino)-pyridin-4-yl]-[1,3,4]oxadiazol-2-yl}-N′,N′-dimethyl-ethane-1,2-diamine]
≤ 3000	≤ 3000	≤ 3000	≤ 3000	Fc1cc(I)ccc1Nc1cnccc1-c1nnc(NCCN2CCCC2)o1 [Example 23, (2-Fluoro-4-iodo-phenyl)-{4-[5-(2-pyrrolidin-1-yl-ethylamino)-[1,3,4]oxadiazol-2-yl]-pyridin-3-yl}-amine]
≤ 3000	≤ 3000	≤ 3000	≤ 3000	Nc1nnc(-c2ccncc2Nc2ccc(I)cc2Cl)o1 [Example 24, [4-(5-Amino-[1,3,4]oxadiazol-2-yl)-pyridin-3-yl]-(2-chloro-4-iodo-phenyl)-amine]
≤ 3000	≤ 3000	≤ 3000	≤ 3000	COc1ccc(Nc2cnccc2-c2nnc(N)o2)c(F)c1 [Example 25, [4-(5-Amino-[1,3,4]oxadiazol-2-yl)-pyridin-3-yl]-(2-fluoro-4-methoxy-phenyl)-amine]
≤ 3000	≤ 3000	≤ 3000	≤ 3000	CCOC(=O)Nc1nnc(-c2ccncc2Nc2ccc(I)cc2F)o1 [Example 26, {5-[3-(2-Fluoro-4-iodo-phenylamino)-pyridin-4-yl]-[1,3,4]oxadiazol-2-yl}-carbamic acid ethyl ester]
≤ 3000	≤ 3000	≤ 3000	≤ 3000	Nc1nnc(-c2cc[n+]([O-])cc2Nc2ccc(I)cc2F)o1 [Example 27, [4-(5-Amino-[1,3,4]oxadiazol-2-yl)-1-oxy-pyridin-3-yl]-(2-fluoro-4-iodo-phenyl)-amine]
≤ 3000	≤ 3000	≤ 3000	≤ 3000	Cc1cc(I)ccc1Nc1cnccc1-c1nnc(N)o1 [Example 29, [4-(5-Amino-[1,3,4]oxadiazol-2-yl)-pyridin-3-yl]-(4-iodo-2-methyl-phenyl)-amine]
≤ 3000	≤ 3000	≤ 3000	≤ 3000	OCc1nnc(-c2ccncc2Nc2ccc(I)cc2F)[nH]1 [Example 32, {5-[3-(2-Fluoro-4-iodo-phenylamino)-pyridin-4-yl]-4H-[1,2,4]triazol-3-yl}-methanol]
≤ 3000	≤ 3000	≤ 3000	≤ 3000	Cc1cc(I)ccc1Nc1cnccc1-c1nnc(N)[nH]1 [Example 33, [4-(5-Amino-4H-[1,2,4]triazol-3-yl)-pyridin-3-yl]-(4-iodo-2-methyl-phenyl)-amine]
≤ 3000	≤ 3000	≤ 3000	≤ 3000	Nc1nnc(-c2ccncc2Nc2ccc(Br)cc2F)o1 [Example 34, [4-(5-Amino-[1,3,4]oxadiazol-2-yl)-pyridin-3-yl]-(4-bromo-2-fluoro-phenyl)-amine]
≤ 3000	≤ 3000	≤ 3000	≤ 3000	Nc1nnc(-c2ccncc2Nc2ccc(Br)cc2Cl)o1 [Example 35, [4-(5-Amino-[1,3,4]oxadiazol-2-yl)-pyridin-3-yl]-(4-bromo-2-chloro-phenyl)-amine]
≤ 3000	≤ 3000	≤ 3000	≤ 3000	Fc1cc(I)ccc1Nc1cnccc1-c1ncno1 [Example 37, (2-Fluoro-4-iodo-phenyl)-(4-[1,2,4]oxadiazol-5-yl-pyridin-3-yl)-amine]
≤ 3000	3000 to 25000	≤ 3000	≤ 3000	OCc1noc(-c2ccncc2Nc2ccc(I)cc2F)n1 [Example 38, {5-[3-(2-Fluoro-4-iodo-phenylamino)-pyridin-4-yl]-[1,2,4]oxadiazol-3-yl}-methanol]
